In PMC9516332 (Frontiers in Oncology, 2022) one finds inhibition data, which are given here for nine molecules.

Like-named read-outs stand apart in the source and are kept apart here.

Holding throughout (experiment): Kinase panel profiling at 1 µmol/L (MSA or IMAP), percentage inhibition
Holding throughout (format): biochemical

Experiment [1] addresses T1, panel of 255 wild-type kinases (Homo sapiens, UniProt Q9UF33).
T1 sequence (Q9UF33 23-1036): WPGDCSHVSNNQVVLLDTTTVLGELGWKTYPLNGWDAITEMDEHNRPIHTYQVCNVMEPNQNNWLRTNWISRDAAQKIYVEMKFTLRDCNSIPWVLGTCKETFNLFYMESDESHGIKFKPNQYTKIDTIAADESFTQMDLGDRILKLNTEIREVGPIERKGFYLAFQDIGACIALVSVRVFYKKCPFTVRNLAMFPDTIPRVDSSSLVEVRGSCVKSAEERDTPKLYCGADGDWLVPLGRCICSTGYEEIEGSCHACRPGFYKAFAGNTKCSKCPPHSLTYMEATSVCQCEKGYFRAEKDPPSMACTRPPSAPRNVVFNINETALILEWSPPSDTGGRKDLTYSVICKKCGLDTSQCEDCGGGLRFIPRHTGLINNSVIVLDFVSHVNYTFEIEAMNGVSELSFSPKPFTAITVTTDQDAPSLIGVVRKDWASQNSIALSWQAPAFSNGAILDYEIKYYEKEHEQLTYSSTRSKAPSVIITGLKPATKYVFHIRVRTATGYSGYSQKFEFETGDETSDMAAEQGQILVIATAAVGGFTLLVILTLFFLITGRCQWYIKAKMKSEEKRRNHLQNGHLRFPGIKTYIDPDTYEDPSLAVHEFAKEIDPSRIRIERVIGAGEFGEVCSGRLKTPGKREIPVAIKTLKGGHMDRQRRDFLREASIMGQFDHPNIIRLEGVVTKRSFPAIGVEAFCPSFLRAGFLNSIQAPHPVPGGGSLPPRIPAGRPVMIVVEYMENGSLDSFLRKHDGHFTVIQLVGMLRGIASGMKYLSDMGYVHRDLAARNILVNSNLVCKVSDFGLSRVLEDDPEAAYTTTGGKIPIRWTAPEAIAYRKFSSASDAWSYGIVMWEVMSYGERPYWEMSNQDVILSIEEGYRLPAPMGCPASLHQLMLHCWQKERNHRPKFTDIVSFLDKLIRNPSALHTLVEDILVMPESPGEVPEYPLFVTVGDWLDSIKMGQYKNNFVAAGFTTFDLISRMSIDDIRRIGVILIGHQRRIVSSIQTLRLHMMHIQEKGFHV
As to conditions: read-out: %-inhibition at 1 µmol/L, EPHA6.

The target of experiment [2] is panel of 255 wild-type kinases (Homo sapiens, UniProt O75676). As to conditions: read-out: %-inhibition, MSK2.
Experiment [3] concerns the target panel of 255 wild-type kinases (Homo sapiens, UniProt Q9H2X6). The conditions noted are these: read-out: %-inhibition at 1 µmol/L, HIPK2.
The target of experiment [4] is T2, panel of 255 wild-type kinases (Homo sapiens, UniProt Q13043).
T2 sequence (Q13043 1-487): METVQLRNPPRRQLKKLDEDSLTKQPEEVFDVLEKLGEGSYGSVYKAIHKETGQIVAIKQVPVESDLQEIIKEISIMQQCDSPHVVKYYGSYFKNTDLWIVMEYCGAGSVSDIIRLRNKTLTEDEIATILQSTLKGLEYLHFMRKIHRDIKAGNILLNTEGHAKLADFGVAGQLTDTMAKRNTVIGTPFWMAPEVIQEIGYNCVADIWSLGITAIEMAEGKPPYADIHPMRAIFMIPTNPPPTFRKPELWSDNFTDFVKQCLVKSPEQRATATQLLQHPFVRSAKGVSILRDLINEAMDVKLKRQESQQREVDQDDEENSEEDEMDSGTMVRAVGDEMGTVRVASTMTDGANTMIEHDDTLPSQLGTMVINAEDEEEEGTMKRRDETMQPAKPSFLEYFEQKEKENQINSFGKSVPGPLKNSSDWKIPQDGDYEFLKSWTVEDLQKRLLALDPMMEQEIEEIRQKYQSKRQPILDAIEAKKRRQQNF
The conditions noted are these: read-out: %-inhibition, MST1.

Experiment [5] deals with panel of 255 wild-type kinases (Homo sapiens, UniProt Q9Y5S2). The conditions noted are these: read-out: %-inhibition, MRCKβ.
Experiment [6] deals with T3, panel of 255 wild-type kinases (Homo sapiens, UniProt Q9NWZ3).
T3 sequence (Q9NWZ3 1-460): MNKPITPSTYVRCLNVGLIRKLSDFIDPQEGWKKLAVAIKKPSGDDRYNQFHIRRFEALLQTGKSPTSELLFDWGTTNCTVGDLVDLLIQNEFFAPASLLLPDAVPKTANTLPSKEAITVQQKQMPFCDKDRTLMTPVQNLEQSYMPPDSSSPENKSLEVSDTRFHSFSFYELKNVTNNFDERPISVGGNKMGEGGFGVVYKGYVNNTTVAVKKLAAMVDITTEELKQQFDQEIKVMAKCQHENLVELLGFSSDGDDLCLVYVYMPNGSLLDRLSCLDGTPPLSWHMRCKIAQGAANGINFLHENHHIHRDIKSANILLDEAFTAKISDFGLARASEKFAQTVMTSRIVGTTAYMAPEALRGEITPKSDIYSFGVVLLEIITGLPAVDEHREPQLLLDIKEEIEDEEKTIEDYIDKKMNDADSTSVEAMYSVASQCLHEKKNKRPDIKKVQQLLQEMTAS
The conditions noted are these: read-out: %-inhibition at 1 µmol/L, IRAK4.

In experiment [7] the target is panel of 255 wild-type kinases (Homo sapiens, UniProt Q8IY84). As to conditions: read-out: %-inhibition, NIM1K.
In experiment [8] the target is panel of 255 wild-type kinases (Homo sapiens, UniProt Q04759). As to conditions: read-out: %-inhibition at 1 µmol/L, PKCθ.
Experiment [9] addresses panel of 255 wild-type kinases (Homo sapiens, UniProt P24723). The conditions noted are these: read-out: %-inhibition at 1 µmol/L, PKCη.
Experiment [10] concerns the target panel of 255 wild-type kinases (Homo sapiens, UniProt Q9P1W9). The conditions noted are these: read-out: %-inhibition at 1 µmol/L, PIM2.
The target in experiment [11] is panel of 255 wild-type kinases (Homo sapiens, UniProt P22694). As to conditions: read-out: %-inhibition at 1 µmol/L, PKACβ.
Where [12] appears, read: kinase EPHA6, 1 µmol/L single concentration.
The mark [13] stands for this setting: MSK2, 1 µmol/L single concentration.
The mark [14] stands for this setting: kinase HIPK2, 1 µmol/L single concentration.
Where [15] appears, read: MST1, 1 µmol/L single concentration.
Setting [16] is: MRCKβ, 1 µmol/L single concentration.
Setting [17] is: kinase IRAK4, 1 µmol/L single concentration.
[18] abbreviates: NIM1K, 1 µmol/L single concentration.
The mark [19] stands for this setting: kinase PKCθ, 1 µmol/L single concentration.
Where [20] appears, read: kinase PKCη, 1 µmol/L single concentration.
[21] abbreviates: kinase PIM2, 1 µmol/L single concentration.
The mark [22] stands for this setting: kinase PKACβ, 1 µmol/L single concentration.

Take `Cn1cc(-c2cc3c(N4CCN(c5ncc([C@@](C)(N)c6ccc(F)cc6)cn5)CC4)ncnn3c2)cn1` [avapritinib]: the inhibition at 1 µM in [1] (setting [12]) was determined as 7%; in experiment [2] (setting [13]) it was 5%; in experiment [3] (setting [14]) it was 4%; in [4] (setting [15]) it was 5.32%; in experiment [5] (setting [16]), 12%; in [6] (setting [17]), 12%. Moreover, the inhibition at 1 µM in experiment [7] (setting [18]) is 0.427%; in experiment [8] (setting [19]), 2.6%; in experiment [9] (setting [20]) it was -5%; in experiment [10] (setting [21]) it was -2.22%; in [11] (setting [22]) it was -19%.
As to `C[C@H](Nc1ncnc2nc[nH]c12)c1cc2cccc(Cl)c2c(=O)n1-c1ccccc1` [duvelisib], the inhibition at 1 µM in experiment [1] (setting [12]) is 5.71%; in experiment [2] (setting [13]), -1.39%; in experiment [3] (setting [14]), 0.116%; in experiment [4] (setting [15]), 10%; in experiment [5] (setting [16]), -7%; in experiment [6] (setting [17]) it was 1.13%. Also, the inhibition at 1 µM was -3.41% in experiment [7] (setting [18]); 1.09% in experiment [8] (setting [19]); 0.743% in experiment [9] (setting [20]); -6.49% in experiment [10] (setting [21]); -16% in experiment [11] (setting [22]).
As to `COc1cc2ncnc(Nc3ccc(F)c(Cl)c3)c2cc1NC(=O)/C=C/CN1CCCCC1` [dacomitinib], the inhibition at 1 µM in [1] (setting [12]) was 98%; in experiment [2] (setting [13]), 6%; in [3] (setting [14]) it was 4.76%; in [4] (setting [15]) it was 2.73%; in experiment [5] (setting [16]) it was 8%; in experiment [6] (setting [17]), 19%. The inhibition at 1 µM is 1.1% in [7] (setting [18]); 1.57% in [8] (setting [19]); 11% in [9] (setting [20]); -3% in [10] (setting [21]); 6% in [11] (setting [22]).
Regarding `CCN1CCN(c2ccc(Nc3cc(N(C)C(=O)Nc4c(Cl)c(OC)cc(OC)c4Cl)ncn3)cc2)CC1` [infigratinib], the inhibition at 1 µM in [1] (setting [12]) was 28%; in experiment [2] (setting [13]) it was -0.703%; in experiment [3] (setting [14]) it was -0.912%; in experiment [4] (setting [15]), 1.11%; in experiment [5] (setting [16]) it was -0.837%; in [6] (setting [17]), -1.22%. Also, the inhibition at 1 µM in experiment [7] (setting [18]) was -2.7%; in experiment [8] (setting [19]), -3%; in experiment [9] (setting [20]) it was 2%; in [10] (setting [21]), -7%; in experiment [11] (setting [22]) it was -17%.
With `Cn1cnc2c(F)c(Nc3ccc(Br)cc3Cl)c(C(=O)NOCCO)cc21` [selumetinib], the inhibition at 1 µM was 1% in experiment [1] (setting [12]); -0.42% in experiment [2] (setting [13]); 2.71% in experiment [3] (setting [14]); -2.38% in experiment [4] (setting [15]); 0.656% in [5] (setting [16]); -1.34% in experiment [6] (setting [17]). Moreover, the inhibition at 1 µM was -0.385% in experiment [7] (setting [18]); -0.321% in experiment [8] (setting [19]); -3.21% in experiment [9] (setting [20]); -3.45% in experiment [10] (setting [21]); -21% in experiment [11] (setting [22]).
With `CNC(=O)c1ccc(-c2cnc3ncc(Cc4ccc5ncccc5c4)n3n2)cc1F` [capmatinib], the inhibition at 1 µM in experiment [1] is -2%; in [2], 1.25%; in experiment [3], 0.264%; in experiment [4] it was -2%; in [5], -1.73%; in [6], -0.569%. Moreover, the inhibition at 1 µM in experiment [7] was -2%; in experiment [8], -5.31%; in experiment [9], -8.53%; in [10], -4.65%; in experiment [11] it was -9%.
In the case of `COC(=O)N[C@@H](C)CNc1nccc(-c2cn(C(C)C)nc2-c2cc(Cl)cc(NS(C)(=O)=O)c2F)n1` [encorafenib], the inhibition at 1 µM was 17% in experiment [1] (setting [12]); -4% in [2] (setting [13]); 0.238% in experiment [3] (setting [14]); 0.835% in experiment [4] (setting [15]); 1.73% in experiment [5] (setting [16]); -1.14% in [6] (setting [17]). For the same molecule, the inhibition at 1 µM in [7] (setting [18]) was -12%; in [8] (setting [19]) it was 2%; in experiment [9] (setting [20]), 13%; in [10] (setting [21]), -1.43%; in experiment [11] (setting [22]) it was 9.51%.
For `Cc1cc(Nc2ncnc3ccc(NC4=NC(C)(C)CO4)cc23)ccc1Oc1ccn2ncnc2c1` [tucatinib], the inhibition at 1 µM in experiment [1] (setting [12]) turned out to be 2.19%; in experiment [2] (setting [13]), 1.24%; in experiment [3] (setting [14]), 6%; in [4] (setting [15]) it was 4%; in experiment [5] (setting [16]), 2%; in [6] (setting [17]) it was 0.835%. In addition, the inhibition at 1 µM in experiment [7] (setting [18]) is 1.49%; in experiment [8] (setting [19]), 0.763%; in [9] (setting [20]), -5.44%; in experiment [10] (setting [21]), -3.72%; in experiment [11] (setting [22]), -15%.
For `C=CC(=O)N1CCC([C@@H]2CCNc3c(C(N)=O)c(-c4ccc(Oc5ccccc5)cc4)nn32)CC1` [zanubrutinib], the inhibition at 1 µM in experiment [1] (setting [12]) is 14%; in [2] (setting [13]), -4%; in experiment [3] (setting [14]), -0.321%; in experiment [4] (setting [15]), -3%; in [5] (setting [16]), -1.23%; in experiment [6] (setting [17]), 1%. The inhibition at 1 µM in experiment [7] (setting [18]) is -1.66%; in experiment [8] (setting [19]), -3%; in experiment [9] (setting [20]) it was 4.22%; in [10] (setting [21]), -7%; in experiment [11] (setting [22]), -8%.
